Laboratory results published in publication PMC7146544, “Dual Plasmepsin-Targeting Antimalarial Agents Disrupt Multiple Stages of the Malaria Parasite Life Cycle” (Cell Host & Microbe, 2020).

What was measured:
HepG2 cells = assay: EC50 for HepG2 cells; assay type: cell-based; settings: Homo sapiens
3D7 parasite cultures = assay: Time of drug killing; assay type: cell-based, Plasmodium falciparum; settings: 80nM WM4, 40nM WM5, 5nM WM382, added to early rings
Method: 3D7 parasite cultures were synchronized using 5% sorbitol (Sigma) twice at 46 h intervals then again when the culture was a mix of late schizonts and early rings. […] The parasitemia of each culture was quantitated every 8 h for 48 h by collecting 50 μL samples for counting by flow cytometry (as previously described). The developmental stage of the parasites was confirmed at each time point by microscopic examination of Giemsa stained thin blood films. Media and compound were replaced at the 32 h time point.

[1] = tested on: P. falciparum merozoites (3D7); assay: Invasion assay; assay type: cell-based, Plasmodium falciparum; settings: 40 nM WM4; 2.5 nM WM382; merozoites released by mechanical rupture
Method: Late-stage parasites (> 40 h post invasion) were enriched by magnet separation (MACS; Miltenyi Biotec) and allowed to develop to fully segmented schizont-stage parasites. To prevent schizont rupture and merozoites release, control parasites were incubated with 1 μM compound 1 (C1). […] Filtrate containing purified merozoites was immediately added to fresh erythrocytes (70%–80% hematocrit), incubated in a shaker (1,100 rpm) at 37°C for 20 min to allow invasion of host cells, and then diluted to 2% hematocrit. After 24 h incubation at 37°C, invasion was evaluated by measuring parasitemia by microscopy (Giemsa-stained thin smears) and flow cytometry (100,000 cells counted with FACSCalibur, BD).

[2] = tested on: P. falciparum gametocytes; assay: Standard membrane feeding assay (SMFA), transmission to mosquitoes; assay type: cell-based, Plasmodium falciparum; settings: gametocytes treated day 13 to day 17; oocysts counted day 7 after feeding
Method: NF54 P. falciparum cultures were synchronized and maintained as described earlier at 5%–10% parasitemia at 4% hematocrit. Once parasitemia reached 8%–10% rings, parasites were diluted to 0.65% parasitemia in desired volume for the gametocyte cultures (10 mL for Petri dish or 6 × 5 mL for 6-well plate). Gametocyte cultures were supplied with gametocyte media consisted of O+ erythrocyte at 4% hematocrit in Roswell Park Memorial Institute (RPMI) 1640 medium supplemented with 26 mM 4-(2-hydroxyethyl)piperazine-1-ethanesulfonic acid (HEPES), 50 μg/mL hypoxanthine, 2.9% NaHCO3, and 10% heat-inactivated human serum. Sexual stage gametocytes were induced by allowing continuous growth cultures without the addition of fresh human erythrocytes ([Vaughan et al., 2012]). […] Stage V gametocytemia was determined by light microscopy examination of methanol fixed, Giemsa stained thin smear under 1,000 magnification. […]
On day 7 after feeding with gametocyte bloodmeal, infected mosquitoes were aspirated into a cup and anesthetized by incubating them at −20°C for 5 min until immobilized. […] Collected midguts were maintained in 1X phosphate buffered saline (PBS, GIBCO) until stained with mercurochrome for 20 min then placed on a glass slide and counted for oocysts by microscopy.

[3] = tested on: protein processing by PMIX and PMX in P. falciparum; assay: Processing inhibition assays (immunoblot of merozoites and supernatants); assay type: cell-based, Plasmodium falciparum; settings: WM4 40 nM, WM382 2.5 nM; for AMA1 processing in merozoites / ASP processing / MTRAP processing / PMIX processing in parasites / RAP1 processing / RON3 processing / Rh1 processed fragments, release into the supernatant / SERA5 processing: E64 10 μM
Method: Processing inhibition assays were performed as previously described ([Boyle et al., 2010]). Synchronized late trophozoite/early schizont cultures to which protease inhibitors had already been added, were passed over LD magnetic columns (Miltenyi Biotech) to remove uninfected erythrocytes. The cysteine protease inhibitor E64 (Sigma) was used at 10 μM. […] A control dish without any protease inhibitor was also included. Parasites were eluted from columns with complete RPMI 1640 culture medium to which the appropriate inhibitor at the same concentration had been added. Eluted parasites were adjusted to 5x10^6 schizonts/mL and 150 ul added per well of a 96-well flat-bottomed culture dish. […] Parasites from each condition were spun at 10000 g/10 min so that merozoite and supernatant fractions could be separately collected. Proteins from both fractions were extracted with Reducing sample buffer and separated on 4%–12% or 3%–8% acrylamide gels (NuPAGE, Invitrogen).

P. berghei = assay: Dose ranging test for P. berghei infection in mice; assay type: in vivo, Plasmodium berghei
Method: Control mice were treated orally with chloroquine for 4 days under q.d. dosing regimen at 10 mpk/day. From day 2 to 30 post infection, parasitemia was measured daily by flow cytometry and microscopy, as described above. Survival of animals to day 30 post infection, with no detectable parasites in the peripheral blood, were considered to be cured (i.e., 100% efficacy).

| Compound | EC50 (HepG2 cells) [µM] | stage of arrest of blood-stage development (3D7 parasite cultures) | ability of merozoites to invade erythrocytes [1] | oocyst numbers in mosquitoes fed treated gametocytes [2] | AMA1 processing in merozoites [3] | ASP processing [3] | MTRAP processing [3] | PMIX processing in parasites [3] | RAP1 processing [3] | RON3 processing [3] | Rh1 processed fragments, release into the supernatant [3] | SERA5 processing [3] | EBA140 processing [3] | EBA175 processing [3] | EBA181 processing [3] | MSP1 cleavage at the known SUB1 sites [3] | MSP1 cleavage by SUB2 [3] | PMX processing in the parasite [3] | Rh5 processing [3] | Ripr processing [3] | also measured |
| --- | --- | --- | --- | --- | --- | --- | --- | --- | --- | --- | --- | --- | --- | --- | --- | --- | --- | --- | --- | --- | --- |
| CC(NC(=O)c1cccc(C(c2ccccc2)N2C(=N)NC(C)(C(C)C)CC2=O)c1)c1ccccc1 (racemic) [WM4] | 14.2 ± 2.3 | arrested at late schizont stage | significantly less able to invade | no significant reduction in oocyst numbers | inhibited cleavage | ASP was processed | did not inhibit its processing | not inhibited | processing of RAP1 to p69 was inhibited | did not block processing | the large fragment cleaved by ROM4 was not released into the supernatant | accumulation of unprocessed SERA5 | inhibited by both compounds | inhibited a cleavage event | a predominant unprocessed form was evident | inhibited | also inhibited | blocked cleavage of PMX | blocked processing of Rh5 | inhibited | SUB2 second processing event [3]: inhibited this second processing event; processing of Rh2a, Rh2b and Rh4 [3]: significantly inhibited processing |
| CCC1(CC)CC(=O)N([C@@H]2CCOc3ccc(C(=O)N[C@H]4CC(C)(C)Oc5ccccc54)cc32)C(=N)N1 [WM382] | 24.8 ± 2.2 | arrested at late schizont stage | unable to invade erythrocytes | potently inhibited oocyst development | inhibited cleavage | cleavage was inhibited | inhibited processing, although not completely | inhibited processing | prevented production of both processed forms | did and the full-length protein, as well as an additional processed product (p55), were detected | the large fragment cleaved by ROM4 was not released into the supernatant | accumulation of unprocessed SERA5 | inhibited by both compounds | inhibited a cleavage event | a predominant unprocessed form was evident | inhibited | higher activity | blocked cleavage of PMX | blocked processing of Rh5 | inhibited | day post-infection from which parasites were detected (P. berghei; WM382 1 mpk oral b.i.d. 4 days): 2 days; day post-infection after which parasites were detectable (P. berghei; WM382 3 mpk oral b.i.d. 4 days): > 12 days; outcome to day 30 post-infection (P. berghei; WM382 3 mpk oral b.i.d. 4 days, n = 4): one mouse remaining parasite-free on day 30 pi; outcome to day 30 post-infection (P. berghei; WM382 10 mpk oral b.i.d. 4 days): remained parasite-free; outcome to day 30 post-infection (P. berghei; WM382 30 mpk oral b.i.d. 4 days): remained parasite-free; outcome to day 30 post-infection (P. berghei; WM382 oral q.d. 60, 30 or 10 mpk/day, 4 days): cured all mice; SUB2 second processing event [3]: inhibited this second processing event; processing of Rh2a, Rh2b and Rh4 [3]: significantly inhibited processing |
